The values that follow come from patent publication US11370776B2, “Sulfonylureas and sulfonylthioureas as NLRP3 inhibitors” (Inflazome Limited, priority 2017, dated 2022).

For test [1], the target named is T1, NLRP3 (Homo sapiens, UniProt Q96P20). As to the kind of experiment: Human whole blood IL1β release assay. Type of test: cell-based. More on the design: Human whole blood in Li-heparin tubes was obtained from healthy donors; from tissue; host or cells: human whole blood from healthy donors, LPS-primed, nigericin-stimulated. The conditions noted are these: human whole blood, 1 μg/ml LPS, nigericin 10 μM, IL-1β release; read-out: HWB IC50. The procedure:
Human Whole Blood IL1β Release Assay
For systemic delivery, the ability to inhibit NLRP3 when the compounds are present within the bloodstream is of great importance. For this reason, the NLRP3 inhibitory activity of a number of compounds in human whole blood was investigated in accordance with the following protocol.
Human whole blood in Li-heparin tubes was obtained from healthy donors from a volunteer donor panel. • 1. […] Incubate for 3 hrs at 37° C., 5% CO2 • 4. Add 10 μl Nigericin (Sigma # N7143) (10 μM FAC) to all wells • 5. Incubate for 1 hr at 37° C., 5% CO2 • 6. At the end of the incubation period, spin plates at 300×g for 5 mins to pellet cells and remove 20 μl of supernatant and add to 96-well v-bottom plates for IL-1β analysis (note: these plates containing the supernatants can be stored at −80° C. to be analysed at a later date) • 7. IL-1β was measured according to the manufacturer protocol (Perkin Elmer-AlphaLisa IL-1 Kit AL220E-5000) • 8. IC50 data is fitted to a non-linear regression equation (log inhibitor vs response-variable slope 4-parameters)

In test [2] the target is T1, NLRP3. As to the kind of experiment: THP-1 cells pyroptosis assay. Also on record: Seed THP-1 cells (25,000 cells/well) containing 1.0 μg/ml LPS; host or cells: THP-1 cells, LPS-primed, nigericin-stimulated. Conditions: for IC50: THP-1 cells, 1.0 μg/ml LPS, nigericin 5 μM, pyroptosis read with resazurin, read-out: THP IC50. Type of test: cell-based. Here is the method: The cells were routinely passaged and grown to confluency (˜10^6 cells/ml). On the day of the experiment, THP-1 cells were harvested and resuspended into RPMI medium (without FBS). The cells were then counted and viability (>90%) checked by Trypan blue (Sigma # T8154). […] To this diluted cell solution was added LPS (Sigma # L4524) to give a 1 μg/ml Final Assay Concentration (FAC). 40 μl of the final preparation was aliquoted into each well of a 96-well plate. The plate thus prepared was used for compound screening. THP-1 Cells Pyroptosis Assay The following method step-by-step assay was followed for compound screening. • 1. […] Add 5 μl nigericin (Sigma # N7143) (FAC 5 μM) to all wells • 5. […] At the end of the incubation period, spin plates at 300×g for 3 mins and remove supernatant • 7. Then add 50 μl of resazurin (Sigma # R7017) (FAC 100 μM resazurin in RPMI medium without FBS) and incubate plates for a further 1-2 hrs at 37° C. and 5% CO2 • 8. […] IC50 data is fitted to a non-linear regression equation (log inhibitor vs response-variable slope 4-parameters) [table]
For orientation: Alamar Blue is a resazurin reagent that responds to reducing activity.

Structures can show the parent of a compound that is named as a salt.

T1 sequence (Q96P20 whole entry): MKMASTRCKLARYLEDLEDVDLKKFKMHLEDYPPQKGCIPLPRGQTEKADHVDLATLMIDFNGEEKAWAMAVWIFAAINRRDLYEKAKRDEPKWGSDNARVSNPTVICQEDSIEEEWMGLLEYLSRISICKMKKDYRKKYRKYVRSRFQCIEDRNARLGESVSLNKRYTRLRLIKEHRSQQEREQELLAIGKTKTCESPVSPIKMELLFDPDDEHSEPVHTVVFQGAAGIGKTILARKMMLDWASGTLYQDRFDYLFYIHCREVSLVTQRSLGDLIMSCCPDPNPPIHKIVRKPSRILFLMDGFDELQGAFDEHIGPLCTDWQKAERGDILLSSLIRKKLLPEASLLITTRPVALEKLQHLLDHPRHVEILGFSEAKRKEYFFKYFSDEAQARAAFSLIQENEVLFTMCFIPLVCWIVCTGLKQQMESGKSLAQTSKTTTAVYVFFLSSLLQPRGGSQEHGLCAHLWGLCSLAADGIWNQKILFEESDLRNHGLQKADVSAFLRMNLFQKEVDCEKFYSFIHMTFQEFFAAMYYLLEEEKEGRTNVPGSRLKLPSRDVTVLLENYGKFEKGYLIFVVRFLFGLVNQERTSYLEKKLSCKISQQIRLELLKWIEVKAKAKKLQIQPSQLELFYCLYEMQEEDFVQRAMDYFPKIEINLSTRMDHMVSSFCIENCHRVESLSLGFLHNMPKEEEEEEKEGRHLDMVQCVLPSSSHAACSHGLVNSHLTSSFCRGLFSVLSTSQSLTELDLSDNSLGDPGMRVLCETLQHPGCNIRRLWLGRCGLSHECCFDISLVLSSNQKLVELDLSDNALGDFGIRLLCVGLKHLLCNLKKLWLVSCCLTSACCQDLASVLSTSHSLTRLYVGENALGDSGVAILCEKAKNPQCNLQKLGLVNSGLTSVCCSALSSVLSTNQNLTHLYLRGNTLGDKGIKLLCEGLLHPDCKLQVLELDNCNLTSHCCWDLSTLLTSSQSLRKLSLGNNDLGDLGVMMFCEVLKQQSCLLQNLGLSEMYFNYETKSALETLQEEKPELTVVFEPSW

Broadly, the IC50 is the concentration needed to halve the response being measured. Regarding `Cc1cc(C)nc(S(=O)(=O)NC(=O)Nc2c3c(cc4c2CCC4)CCC3)n1` [Example 18, N-((1,2,3,5,6,7-Hexahydro-s-indacen-4-yl)carbamoyl)-4,6-dimethyl pyrimidine-2-sulfonamide, Potassium Salt], the IC50 in test [1] is less than 2500 nM; in test [2], less than 800 nM. The “NLRP3 inhibitory activity (in words)” value in test [2] (THP-1 pyroptosis assay) is “highly active”.

As for `O=C(Nc1c2c(cc3c1CCC3)CCC2)NS(=O)(=O)c1cncnc1` [Example 10, N-((1,2,3,5,6,7-Hexahydro-s-indacen-4-yl)carbamoyl) pyrimidine-5-sulfonamide, Potassium Salt], the values for the IC50 in test [1] and in test [2] were less than 7500 nM and less than 10000 nM, respectively.

As for `CC(C)c1cc(F)cc(-c2ccnc(C#N)c2)c1NC(=O)NS(=O)(=O)c1cc(N(C)C)cnn1` [Example 50, N-((2-(2-Cyanopyridin-4-yl)-4-fluoro-6-isopropylphenyl)carbamoyl)-5-(dimethylamino) pyridazine-3-sulfonamide], the IC50 was less than 2500 nM in test [1] and less than 800 nM in test [2].
